The molecules below were run against T1, ATM protein immunoprecipitated from HeLa cell nuclear extract (Homo sapiens, UniProt Q13315) (assay: In vitro ATM inhibition assay (phosphorylation of GSTp53N66 on serine 15, chemiluminescent detection)). Settings: read-out: IC50 values (the concentration at which 50% of the enzyme activity is inhibited), ATM inhibition.
T1 construct: ATM protein was immunoprecipitated from HeLa cell nuclear extract; endogenous in cells; host or cells: HeLa cell nuclear extract (immunoprecipitated with rabbit polyclonal anti-ATM antiserum)
Assay type: biochemical
Procedure: In order to assess the inhibitory action of the compounds against ATM in vitro, the following assay was used to determine IC50 values. ATM protein was immunoprecipitated from HeLa cell nuclear extract using rabbit polyclonal anti-sera raised to the C-terminal ˜500 amino-acid residues of the human ATM protein. […] 10 μl of immunoprecipitated ATM in Buffer C (50 mM Hepes, pH 7.4, 6 mM MgCl2, 150 mM NaCl, 0.1 mM sodium orthovanadate, 4 mM MnCl2, 0.1 mM dithiothreitol, 10% glycerol) was added to 32.5 μl of buffer C containing 1 μg of the ATM substrate GSTp53N66 in a V-bottomed 96 well polypropylene plate. The GSTp53N66 substrate is the amino terminal 66 amino acid residues of human wild type p53 fused to glutathione S-transferase. […] Varying concentrations of inhibitor were then added. […] After 10 minutes of incubation at 37° C., the reactions were initiated by the addition of 5 μl of 500 μM Na-ATP. After 1 hour with shaking at 37° C., 150 μl of phosphate buffered saline (PBS) was added to the reaction and the plate centrifuged at 1500 rpm for 10 minutes. 5 μl of the reaction was then transferred to a 96 well opaque white plate containing 45 μl of PBS to allow the GSTp53N66 substrate to bind to the plate wells. The plate was covered and incubated at room temperature for 1 hour with shaking before discarding the contents. The plate wells were washed twice by the addition of PBS prior to the addition of 3% (w/v) bovine serum albumin (BSA) in PBS. The plate was incubated at room temperature for 1 hour with shaking before discarding the contents and washing twice with PBS. To the wells, 50 μl of a 1:10,000 dilution of primary phosphoserine-15 antibody (Cell Signaling Technology, #9284L) in 3% BSA/PBS was added to detect the phosphorylation event on the serine 15 residue of p53 elicited by the ATM kinase. […] The wells were then washed four times with PBS before the addition of chemiluminescence reagent (NEN Renaissance, NEL105). The plate was then shaken briefly, covered with a transparent plate seal and transferred to a TopCount NXT for chemiluminescent counting. Counts per second, following a one second counting time, were recorded for each reaction.
The enzyme activity for each compound is then calculated using the following equation:
[formula] Results In vitro ATM assays
Compounds were assayed for ATM inhibition activity using the method described above. […] These are determined over a range of different concentrations, normally from 100 μM down to 0.1 nM. Such IC50 values are used as comparative values to identify increased compound potencies.
Note: tested normally from 100 µM down to 0.1 nM.

T1 sequence (Q13315 whole entry): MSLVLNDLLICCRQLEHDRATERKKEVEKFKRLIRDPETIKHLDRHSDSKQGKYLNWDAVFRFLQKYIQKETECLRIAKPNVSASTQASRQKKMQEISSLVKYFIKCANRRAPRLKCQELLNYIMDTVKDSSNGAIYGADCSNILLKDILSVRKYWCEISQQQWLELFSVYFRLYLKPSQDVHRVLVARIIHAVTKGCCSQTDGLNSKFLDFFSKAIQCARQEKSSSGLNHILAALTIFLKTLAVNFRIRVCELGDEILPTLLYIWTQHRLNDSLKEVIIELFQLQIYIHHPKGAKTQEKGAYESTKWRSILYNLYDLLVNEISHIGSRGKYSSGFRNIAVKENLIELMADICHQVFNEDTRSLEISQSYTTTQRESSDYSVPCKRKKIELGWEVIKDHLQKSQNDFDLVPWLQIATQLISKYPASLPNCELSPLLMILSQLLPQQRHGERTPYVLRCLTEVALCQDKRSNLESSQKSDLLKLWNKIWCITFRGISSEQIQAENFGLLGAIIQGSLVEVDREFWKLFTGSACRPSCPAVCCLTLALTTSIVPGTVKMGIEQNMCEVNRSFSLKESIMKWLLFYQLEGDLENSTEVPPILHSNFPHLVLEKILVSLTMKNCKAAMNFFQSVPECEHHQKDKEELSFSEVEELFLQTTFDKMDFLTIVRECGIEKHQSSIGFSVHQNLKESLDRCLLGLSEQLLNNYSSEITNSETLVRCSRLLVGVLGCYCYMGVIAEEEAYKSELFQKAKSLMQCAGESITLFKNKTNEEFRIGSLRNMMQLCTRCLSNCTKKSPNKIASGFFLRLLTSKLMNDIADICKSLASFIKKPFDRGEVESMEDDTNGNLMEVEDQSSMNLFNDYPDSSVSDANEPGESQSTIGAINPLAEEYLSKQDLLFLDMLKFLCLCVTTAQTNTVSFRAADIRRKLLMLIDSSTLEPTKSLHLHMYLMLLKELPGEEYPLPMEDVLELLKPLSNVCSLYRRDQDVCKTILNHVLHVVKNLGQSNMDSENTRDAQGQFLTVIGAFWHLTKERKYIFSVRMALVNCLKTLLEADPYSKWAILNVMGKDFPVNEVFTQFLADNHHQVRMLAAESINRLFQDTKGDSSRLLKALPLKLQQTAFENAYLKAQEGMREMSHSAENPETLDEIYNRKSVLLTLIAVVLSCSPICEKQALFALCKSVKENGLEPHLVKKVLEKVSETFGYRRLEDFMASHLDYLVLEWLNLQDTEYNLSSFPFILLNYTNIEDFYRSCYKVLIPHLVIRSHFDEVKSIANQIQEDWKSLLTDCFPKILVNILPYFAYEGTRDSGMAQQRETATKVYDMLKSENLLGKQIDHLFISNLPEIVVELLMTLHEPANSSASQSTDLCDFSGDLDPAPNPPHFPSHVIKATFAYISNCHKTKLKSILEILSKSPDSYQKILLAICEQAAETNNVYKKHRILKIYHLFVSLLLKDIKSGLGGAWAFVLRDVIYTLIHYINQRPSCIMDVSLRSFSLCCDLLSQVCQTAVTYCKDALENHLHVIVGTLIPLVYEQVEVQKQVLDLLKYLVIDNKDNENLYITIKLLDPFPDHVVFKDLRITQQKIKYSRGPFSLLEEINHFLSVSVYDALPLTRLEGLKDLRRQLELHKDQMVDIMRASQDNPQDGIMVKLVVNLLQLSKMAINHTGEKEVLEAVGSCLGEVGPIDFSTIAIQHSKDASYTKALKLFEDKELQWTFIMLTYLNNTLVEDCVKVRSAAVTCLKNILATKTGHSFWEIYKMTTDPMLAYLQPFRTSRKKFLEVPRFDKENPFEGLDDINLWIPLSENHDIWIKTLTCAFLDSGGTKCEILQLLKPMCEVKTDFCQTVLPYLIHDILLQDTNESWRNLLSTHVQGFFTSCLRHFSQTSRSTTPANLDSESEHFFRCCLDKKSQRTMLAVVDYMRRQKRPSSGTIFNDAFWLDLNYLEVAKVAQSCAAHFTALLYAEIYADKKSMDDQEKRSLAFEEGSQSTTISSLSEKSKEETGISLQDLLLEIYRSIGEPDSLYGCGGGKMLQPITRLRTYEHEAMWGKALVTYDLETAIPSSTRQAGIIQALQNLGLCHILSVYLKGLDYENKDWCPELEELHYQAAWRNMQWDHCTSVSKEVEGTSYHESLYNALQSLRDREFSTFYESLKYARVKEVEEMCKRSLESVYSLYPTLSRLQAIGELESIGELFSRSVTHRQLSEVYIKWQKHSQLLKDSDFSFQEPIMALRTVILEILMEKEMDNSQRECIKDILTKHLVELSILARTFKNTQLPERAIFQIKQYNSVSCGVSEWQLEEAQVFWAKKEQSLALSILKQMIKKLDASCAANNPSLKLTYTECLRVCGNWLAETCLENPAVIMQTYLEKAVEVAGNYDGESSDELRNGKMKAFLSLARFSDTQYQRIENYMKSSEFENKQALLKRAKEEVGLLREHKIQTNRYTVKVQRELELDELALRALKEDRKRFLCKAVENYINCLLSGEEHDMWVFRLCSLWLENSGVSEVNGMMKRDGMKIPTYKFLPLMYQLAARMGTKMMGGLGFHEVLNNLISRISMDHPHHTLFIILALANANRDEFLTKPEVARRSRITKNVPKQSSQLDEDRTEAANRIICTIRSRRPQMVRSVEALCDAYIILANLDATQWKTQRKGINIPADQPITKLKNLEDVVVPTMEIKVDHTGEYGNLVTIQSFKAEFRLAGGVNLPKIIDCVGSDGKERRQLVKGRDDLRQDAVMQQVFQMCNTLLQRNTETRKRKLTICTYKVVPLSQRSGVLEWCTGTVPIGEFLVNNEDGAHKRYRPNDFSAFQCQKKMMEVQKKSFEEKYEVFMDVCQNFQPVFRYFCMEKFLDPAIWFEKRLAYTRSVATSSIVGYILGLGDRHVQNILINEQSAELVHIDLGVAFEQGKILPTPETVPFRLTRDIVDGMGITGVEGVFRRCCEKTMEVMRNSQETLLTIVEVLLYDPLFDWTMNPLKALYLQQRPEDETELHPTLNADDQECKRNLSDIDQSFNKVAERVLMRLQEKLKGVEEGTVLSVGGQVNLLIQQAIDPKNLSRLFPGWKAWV

Row | SMILES | IC50 [nM]
1 | O=C(CCNCC1CCCO1)Nc1ccc2c(c1)Sc1cccc(-c3cc(=O)cc(N4CCOCC4)o3)c1S2 (stereo not drawn) [Compound 107] | < 200
2 | CN(C)CCC(=O)Nc1ccc2c(c1)Sc1cccc(-c3cc(=O)cc(N4CCOCC4)o3)c1S2 [Compound 108] | < 200
3 | C[C@@H]1CN(CCC(=O)Nc2ccc3c(c2)Sc2cccc(-c4cc(=O)cc(N5CCOCC5)o4)c2S3)C[C@H](C)O1 [Compound 109] | < 200
4 | O=C(CCNCc1ccncc1)Nc1ccc2c(c1)Sc1cccc(-c3cc(=O)cc(N4CCOCC4)o3)c1S2 [Compound 110] | < 200
5 | CCN(CCC(=O)Nc1ccc2c(c1)Sc1cccc(-c3cc(=O)cc(N4CCOCC4)o3)c1S2)Cc1ccccc1 [Compound 111] | < 200
6 | CN(C)CCN(C)CCC(=O)Nc1ccc2c(c1)Sc1cccc(-c3cc(=O)cc(N4CCOCC4)o3)c1S2 [Compound 112] | < 200
7 | O=C(CCNCCN1CCNC1=O)Nc1ccc2c(c1)Sc1cccc(-c3cc(=O)cc(N4CCOCC4)o3)c1S2 [Compound 113] | < 200
8 | CN1CCCC1CCNCCC(=O)Nc1ccc2c(c1)Sc1cccc(-c3cc(=O)cc(N4CCOCC4)o3)c1S2 (stereo not drawn) [Compound 114] | < 200
9 | CC(=O)N1CCN(CCC(=O)Nc2ccc3c(c2)Sc2cccc(-c4cc(=O)cc(N5CCOCC5)o4)c2S3)CC1 [Compound 116] | < 200
10 | O=C(CCN1CCN(CCOCCO)CC1)Nc1ccc2c(c1)Sc1cccc(-c3cc(=O)cc(N4CCOCC4)o3)c1S2 [Compound 117] | < 200
11 | CC(C)N1CCN(CCC(=O)Nc2ccc3c(c2)Sc2cccc(-c4cc(=O)cc(N5CCOCC5)o4)c2S3)CC1 [Compound 118] | < 200
12 | CCN1CCN(CCC(=O)Nc2ccc3c(c2)Sc2cccc(-c4cc(=O)cc(N5CCOCC5)o4)c2S3)CC1 [Compound 119] | < 200
13 | O=C(CCN1CCN(c2ccccn2)CC1)Nc1ccc2c(c1)Sc1cccc(-c3cc(=O)cc(N4CCOCC4)o3)c1S2 [Compound 120] | < 200
14 | O=C(CCN1CCN(c2ccc(F)cc2)CC1)Nc1ccc2c(c1)Sc1cccc(-c3cc(=O)cc(N4CCOCC4)o3)c1S2 [Compound 121] | < 200
15 | CC(C)NC(=O)CN1CCN(CCC(=O)Nc2ccc3c(c2)Sc2cccc(-c4cc(=O)cc(N5CCOCC5)o4)c2S3)CC1 [Compound 123] | < 200
16 | CN(C)CCN1CCN(CCC(=O)Nc2ccc3c(c2)Sc2cccc(-c4cc(=O)cc(N5CCOCC5)o4)c2S3)CC1 [Compound 124] | < 200
17 | NC(=O)CNCCC(=O)Nc1ccc2c(c1)Sc1cccc(-c3cc(=O)cc(N4CCOCC4)o3)c1S2 [Compound 125] | < 200

Row | SMILES | IC50 [nM]
18 | CCN1CCCC1CNCCC(=O)Nc1ccc2c(c1)Sc1cccc(-c3cc(=O)cc(N4CCOCC4)o3)c1S2 (stereo not drawn) [Compound 126] | < 200
19 | O=C(CCNCCN1CCCCC1)Nc1ccc2c(c1)Sc1cccc(-c3cc(=O)cc(N4CCOCC4)o3)c1S2 [Compound 127] | < 200
20 | O=C(CCN1CCN(CCO)CC1)Nc1ccc2c(c1)Sc1cccc(-c3cc(=O)cc(N4CCOCC4)o3)c1S2 [Compound 128] | < 200
21 | O=C(CCN1CCCN(CCO)CC1)Nc1ccc2c(c1)Sc1cccc(-c3cc(=O)cc(N4CCOCC4)o3)c1S2 [Compound 129] | < 200
22 | O=c1cc(-c2ccc(OCCN3CCCCCC3)c3c2Sc2ccccc2S3)oc(N2CCOCC2)c1 [Compound 148] | < 200
23 | O=c1cc(-c2ccc(OCCNN3CCOCC3)c3c2Sc2ccccc2S3)oc(N2CCOCC2)c1 [Compound 153] | < 200
24 | O=c1cc(-c2ccc(OCCNCCN3CCN(Cc4ccccc4)CC3)c3c2Sc2ccccc2S3)oc(N2CCOCC2)c1 [Compound 164] | < 200
25 | CN(C)Cc1ccc(CSCCNCCOc2ccc(-c3cc(=O)cc(N4CCOCC4)o3)c3c2Sc2ccccc2S3)o1 [Compound 170] | < 200
26 | CCNCCCOc1ccc(-c2cc(=O)cc(N3CCOCC3)o2)c2c1Sc1ccccc1S2 [Compound 172] | < 200
27 | C[C@@H]1COC[C@H](C)N1CCCOc1ccc(-c2cc(=O)cc(N3CCOCC3)o2)c2c1Sc1ccccc1S2 [Compound 181] | < 200
28 | O=c1cc(-c2ccc(OCCCNC3CCC3)c3c2Sc2ccccc2S3)oc(N2CCOCC2)c1 [Compound 182] | < 200
29 | CC(C)N(CCNCCCOc1ccc(-c2cc(=O)cc(N3CCOCC3)o2)c2c1Sc1ccccc1S2)C(C)C [Compound 200] | < 200
30 | O=c1cc(-c2cccc3c2Sc2ccccc2N3CCCNCC2CCCO2)oc(N2CCOCC2)c1 (stereo not drawn) [Compound 240] | < 200
31 | CC(C)CNCCCN1c2ccccc2Sc2c(-c3cc(=O)cc(N4CCOCC4)o3)cccc21 [Compound 242] | < 200
32 | CCN(CC)CCCN1c2ccccc2Sc2c(-c3cc(=O)cc(N4CCOCC4)o3)cccc21 [Compound 244] | < 200
33 | CCCCNCCCN1c2ccccc2Sc2c(-c3cc(=O)cc(N4CCOCC4)o3)cccc21 [Compound 245] | < 200
34 | O=c1cc(-c2cccc3c2Sc2ccccc2N3CCCNC2CCCCC2)oc(N2CCOCC2)c1 [Compound 251] | < 200

Further lines, results first:

Row | IC50 [nM] | SMILES
35 | < 200 | O=C(CN1CCN(CCOCCO)CC1)Nc1ccc2c(c1)Sc1cccc(-c3cc(=O)cc(N4CCOCC4)o3)c1S2 [Compound 79]
36 | < 200 | CC(C)N1CCN(CC(=O)Nc2ccc3c(c2)Sc2cccc(-c4cc(=O)cc(N5CCOCC5)o4)c2S3)CC1 [Compound 80]
37 | < 200 | CCN1CCN(CC(=O)Nc2ccc3c(c2)Sc2cccc(-c4cc(=O)cc(N5CCOCC5)o4)c2S3)CC1 [Compound 81]
38 | < 200 | O=C(CN1CCN(c2ccccn2)CC1)Nc1ccc2c(c1)Sc1cccc(-c3cc(=O)cc(N4CCOCC4)o3)c1S2 [Compound 82]
39 | < 200 | O=C(CN1CCN(c2ccc(F)cc2)CC1)Nc1ccc2c(c1)Sc1cccc(-c3cc(=O)cc(N4CCOCC4)o3)c1S2 [Compound 83]
40 | < 200 | O=C(CN1CCN(c2ncccn2)CC1)Nc1ccc2c(c1)Sc1cccc(-c3cc(=O)cc(N4CCOCC4)o3)c1S2 [Compound 84]
41 | < 200 | CC(C)NC(=O)CN1CCN(CC(=O)Nc2ccc3c(c2)Sc2cccc(-c4cc(=O)cc(N5CCOCC5)o4)c2S3)CC1 [Compound 85]
42 | < 200 | CN(C)CCN1CCN(CC(=O)Nc2ccc3c(c2)Sc2cccc(-c4cc(=O)cc(N5CCOCC5)o4)c2S3)CC1 [Compound 86]
43 | < 200 | CCN1CCCC1CNCC(=O)Nc1ccc2c(c1)Sc1cccc(-c3cc(=O)cc(N4CCOCC4)o3)c1S2 (stereo not drawn) [Compound 87]
44 | < 200 | O=C(CNCCN1CCCCC1)Nc1ccc2c(c1)Sc1cccc(-c3cc(=O)cc(N4CCOCC4)o3)c1S2 [Compound 88]
45 | < 200 | O=C(CCN1CCOCC1)Nc1ccc2c(c1)Sc1cccc(-c3cc(=O)cc(N4CCOCC4)o3)c1S2 [Compound 91]
46 | < 200 | O=C(CCN1CCCCC1)Nc1ccc2c(c1)Sc1cccc(-c3cc(=O)cc(N4CCOCC4)o3)c1S2 [Compound 92]
47 | < 200 | CN1CCN(CCC(=O)Nc2ccc3c(c2)Sc2cccc(-c4cc(=O)cc(N5CCOCC5)o4)c2S3)CC1 [Compound 94]
48 | < 200 | O=C(CCNCCO)Nc1ccc2c(c1)Sc1cccc(-c3cc(=O)cc(N4CCOCC4)o3)c1S2 [Compound 96]
49 | < 200 | NCCNCCC(=O)Nc1ccc2c(c1)Sc1cccc(-c3cc(=O)cc(N4CCOCC4)o3)c1S2 [Compound 97]
50 | < 200 | O=C(CCN1CCCC1)Nc1ccc2c(c1)Sc1cccc(-c3cc(=O)cc(N4CCOCC4)o3)c1S2 [Compound 98]
51 | < 200 | CN1CCCN(CCC(=O)Nc2ccc3c(c2)Sc2cccc(-c4cc(=O)cc(N5CCOCC5)o4)c2S3)CC1 [Compound 99]
52 | < 200 | O=C(CCN1CCCNCC1)Nc1ccc2c(c1)Sc1cccc(-c3cc(=O)cc(N4CCOCC4)o3)c1S2 [Compound 100]
53 | < 200 | O=C(CCN1CCCCCC1)Nc1ccc2c(c1)Sc1cccc(-c3cc(=O)cc(N4CCOCC4)o3)c1S2 [Compound 101]
54 | < 200 | O=C(CCNCCCN1CCOCC1)Nc1ccc2c(c1)Sc1cccc(-c3cc(=O)cc(N4CCOCC4)o3)c1S2 [Compound 102]
55 | < 200 | COc1ccc(CNCCC(=O)Nc2ccc3c(c2)Sc2cccc(-c4cc(=O)cc(N5CCOCC5)o4)c2S3)cc1 [Compound 103]
56 | < 200 | O=C(CCSc1ncn[nH]1)Nc1ccc2c(c1)Sc1cccc(-c3cc(=O)cc(N4CCOCC4)o3)c1S2 [Compound 104]
57 | < 200 | CCN(CC)CCC(=O)Nc1ccc2c(c1)Sc1cccc(-c3cc(=O)cc(N4CCOCC4)o3)c1S2 [Compound 105]

Reference: patent US7429660B2, “ATM inhibitors” (Kudos Pharmaceuticals Limited, priority 2003, dated 2008)
